This passage reports IC50 results from ChEMBL document CHEMBL1130692, “Novel B-ring modified combretastatin analogues: syntheses and antineoplastic activity” (Bioorg Med Chem Lett, 1998).

The species named for one assay is Bos taurus. Briefly: Inhibitory activity was determined against tubulin polymerization of bovine brain tubulin. Type of assay: functional.
Another assay has as its system Colon 26. Briefly: Cytotoxic activity was determined against Colon 26 adenocarcinoma cells. Type of assay: functional, cell-based. The settings on record: Mus musculus.

Structures are written as SMILES.

For `COc1cnc(/C=C\c2cc(OC)c(OC)c(OC)c2)nc1`, the results for the IC50 in the assay listed under Bos taurus and in the assay on Colon 26 were above 10 µM and above 3 µM, respectively.
The matching figures for `COc1ccc(/C=C\c2cc(OC)c(OC)c(OC)c2)cn1`: 2 µM and 0.0292 µM.
On the same counts, the results for `COc1cc(/C=C\c2ccc(=O)n(C)c2)cc(OC)c1OC` are above 10 µM and above 3 µM.
On the same counts, the results for `COc1ccc(/C=C\c2cc(OC)c(OC)c(OC)c2)nn1` are above 10 µM and above 3 µM.
For the molecule `COc1cc(/C=C\c2cc[n+]([O-])cc2)cc(OC)c1OC`, the half-maximal inhibitory concentration (IC50) in the assay filed under Bos taurus was above 10 µM; in the assay on Colon 26 it was above 3 µM.
The matching figures for `COc1cnc(/C=C\c2cc(OC)c(OC)c(OC)c2)cn1`: 9 µM and 0.88 µM.
On the same counts, the results for `COc1ncc(/C=C\c2cc(OC)c(OC)c(OC)c2)cn1` are 3 µM and 0.275 µM.
On the same counts, the results for `COc1ccc(/C=C\c2cc(OC)c(OC)c(OC)c2)nc1` are 3 µM and 0.182 µM.
As for `COc1cc(/C=C\c2cc[n+](C)cc2)cc(OC)c1OC`, the IC50 in the assay on Colon 26 is above 3 µM.
For the molecule `COc1cc(/C=C\c2ccn(C)c(=O)c2)cc(OC)c1OC`, the IC50 in the assay filed under Bos taurus was found to be 2 µM; in the assay with Colon 26, 0.0192 µM.
Molecule `COc1ccc(/C=C\c2cc(OC)c(OC)c(OC)c2)cc1N` came in with an IC50 in the assay listed under Bos taurus of 1 µM.
Regarding `COc1ccc(/C=C\c2cc(OC)c(OC)c(OC)c2)cc1O` [COMBRETASTATIN A4], the 50% inhibitory concentration (IC50) in the assay listed under Bos taurus was 2 µM; in the assay on Colon 26, 0.0087 µM.

For orientation: IC50 means the concentration that inhibits the measured activity by half.
